In patent US9120777B2, “Heterocyclic compound” (Takeda Pharmaceutical Company Limited, priority 2013, dated 2015):

Tests used:
human SSTR5 = target: T1, human SSTR5 (Homo sapiens, UniProt P35346); experiment: Evaluation of human SSTR5 antagonist activity using intracellular cAMP concentration as index; format: cell-based; conditions: 1 uM test compound; CHO (dhfr-) cells stably expressing human SSTR5; 0.1 nM somatostatin 28 and 0.3 uM forskolin; HTRF cAMP; read-out: Inhibition rate against SSTR5 at 1 uM
T1 construct: expressed in transfected cells
Procedure: Evaluation of Human SSTR5 Antagonist Activity Using Intracellular cAMP Concentration as Index
The intracellular cAMP concentration was measured using HTRF cAMP dynamic 2 kit (Cisbio Bioassays). Each test compound diluted with an assay buffer (HBSS (Invitrogen Corp.) containing 5 mM HEPES (pH 7.5) (Invitrogen Corp.), 0.1% fatty-acid free BSA (Sigma-Aldrich Corp.), and 500 u (“u” represents “micro”)M IBMX (Wako Pure Chemical Industries, Ltd.)) was added at a concentration of 2 uL/well to a 384-well white plate (Greiner Bio-One Co., Ltd.) to give the final concentration of 1 uM. A frozen stock of CHO (dhfr−) cells stably expressing the human SSTR5 gene (Accession No. NM_001053) was thawed in a thermostat bath of 37 C and suspended in a subculture medium (MEM alpha (Wako Pure Chemical Industries, Ltd.), 10% dialyzed serum (Gemini Bio-Products), and 50 ug/mL gentamicin (Invitrogen Corp.). After centrifugation of the cell suspension, the cells were resuspended in an assay buffer and added at a concentration of 2 uL/well (about 4,000 cells/well) to the plate. The compound and the cells were incubated for 15 minutes, and then, an assay buffer containing 0.1 nM (final concentration) somatostatin 28 (Toray Research Center) and 0.3 uM (final concentration) forskolin (Wako Pure Chemical Industries, Ltd.) was added thereto at a concentration of 2 uL/well, followed by incubation at room temperature for 30 minutes. cAMP-d2 and anti-cAMP-cryptate were each added thereto at a concentration of 3 uL/well. The plate was left standing at room temperature for 60 minutes. Then, the fluorescence resonance energy transfer (FRET) intensity was measured using Multi-label reader Envision (PerkinElmer). The FRET intensity of the wells supplemented with the test compound group was converted to a cAMP concentration using a calibration curve prepared from the FRET intensity of a well group containing an assay buffer supplemented with an arbitrary concentration of cAMP. The inhibitory activity of each compound was calculated according to the following expression: Inhibitory activity(%)=(C−B)/(A−B)×100 A: cAMP concentration calculated from the wells supplemented with 0.3 uM forskolin B: cAMP concentration calculated from the wells supplemented with 0.3 uM forskolin and 0.1 nM somatostatin 28 C: cAMP concentration calculated from the wells supplemented with 0.3 uM forskolin, 0.1 nM somatostatin 28, and 1 uM test compound

[1] = tested on: Female KK-Ay/Ta mice, a type 2 diabetes model; experiment: Antidiabetic effect in mice (glycated hemoglobin after 2 weeks of treatment); format: in vivo; conditions: 1 mg/kg orally once a day for 2 weeks, n=8
Excerpt: Antidiabetic Effect in Mice
Female KK-Ay/Ta mice (Clea Japan Inc.), a type 2 diabetes model, were used in this study. At the age of 7-week old, blood sample were collected from tail vein at 8:00 am, and animals were divided into separate groups (n=8) based on glycated hemoglobin (GHb), plasma glucose, insulin, triglyceride levels and body weight. Vehicle (0.5% (w/v) methylcellulose) or compounds (suspended in vehicle) were orally administered once a day for 2 weeks. After 2 weeks of treatment, GHb was determined by auto-analyzer HLC-723G8 (TOSOH, Japan).

T1 sequence (P35346 whole entry): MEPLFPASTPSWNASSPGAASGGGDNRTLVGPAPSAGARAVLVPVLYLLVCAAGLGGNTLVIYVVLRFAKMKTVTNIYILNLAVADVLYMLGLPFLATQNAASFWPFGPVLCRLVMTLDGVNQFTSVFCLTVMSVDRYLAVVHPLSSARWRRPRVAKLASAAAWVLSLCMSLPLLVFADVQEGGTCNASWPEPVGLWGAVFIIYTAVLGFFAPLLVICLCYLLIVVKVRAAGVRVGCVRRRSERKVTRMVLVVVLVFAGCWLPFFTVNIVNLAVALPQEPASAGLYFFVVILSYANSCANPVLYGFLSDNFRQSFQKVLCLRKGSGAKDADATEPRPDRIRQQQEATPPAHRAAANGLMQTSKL

SMILES | inhibition at 1 µM (human SSTR5) [%] | average of delta GHb (%) [1] [%]
CCOc1cc(C2CCC2)c(C2CC2)cc1CN1CCC(n2ccc(C(=O)O)cc2=O)CC1 [Example 1, 1-(1-(4-cyclobutyl-5-cyclopropyl-2-ethoxybenzyl)piperidin-4-yl)-2-oxo-1,2-dihydropyridine-4-carboxylic acid] | 84 | 
CC(C)Oc1cc(-c2ccc(F)cc2)c(C2CC2)cc1CN1CCC(n2ccc(C(=O)O)cc2=O)CC1 [Example 3, 1-(1-((2-cyclopropyl-4′-fluoro-5-isopropoxybiphenyl-4-yl)methyl)piperidin-4-yl)-2-oxo-1,2-dihydropyridine-4-carboxylic acid] | 116 | 
CC(C)Oc1c(CN2CCC(n3ccc(C(=O)O)cc3=O)CC2)cc(C2CC2)c(-c2ccc(F)cc2F)c1Cl [Example 5, 1-(1-((2-chloro-6-cyclopropyl-2′,4′-difluoro-3-isopropoxybiphenyl-4-yl)methyl)piperidin-4-yl)-2-oxo-1,2-dihydropyridine-4-carboxylic acid] | 88 | 
CCc1c(C(=O)O)ccn(C2CCN(Cc3cc(C4CC4)c(-c4ccc(F)cc4F)cc3OC(C)C)CC2)c1=O [Example 6, 1-(1-((2-cyclopropyl-2′,4′-difluoro-5-isopropoxybiphenyl-4-yl)methyl)piperidin-4-yl)-3-ethyl-2-oxo-1,2-dihydropyridine-4-carboxylic acid] | 94 | 
CCc1c(C(=O)O)ccn(C2CCN(Cc3cc(C4CC4)c(-c4ccc(F)cc4F)c(F)c3OC(C)C)CC2)c1=O [Example 7, 1-(1-((6-cyclopropyl-2,2′,4′-trifluoro-3-isopropoxybiphenyl-4-yl)methyl)piperidin-4-yl)-3-ethyl-2-oxo-1,2-dihydropyridine-4-carboxylic acid] | 124 | 
CCOc1c(CN2CCC(n3ccc(C(=O)O)c(CC)c3=O)CC2)cc(C2CC2)c(-c2ccc(F)cc2F)c1F [Example 45, 1-(1-((6-cyclopropyl-3-ethoxy-2,2′,4′-trifluorobiphenyl-4-yl)methyl)piperidin-4-yl)-3-ethyl-2-oxo-1,2-dihydropyridine-4-carboxylic acid] | 98 | 
CCc1c(C(=O)O)ccn(C2CCN(Cc3cc(C4CC4)c(C4CC4)c(F)c3OC(C)C)CC2)c1=O [Example 47, 1-(1-(4,5-dicyclopropyl-3-fluoro-2-isopropoxybenzyl)piperidin-4-yl)-3-ethyl-2-oxo-1,2-dihydropyridine-4-carboxylic acid] | 111 | 
Cc1c(C(=O)O)ccn(C2CCN(Cc3cc(C4CC4)c(-c4ccc(F)cc4)c(F)c3OC(C)C)CC2)c1=O [Example 49, 1-(1-((6-Cyclopropyl-2,4′-difluoro-3-isopropoxybiphenyl-4-yl)methyl)piperidin-4-yl)-3-methyl-2-oxo-1,2-dihydropyridine-4-carboxylic acid] |  | −0.51

Further lines, with some results ahead:

inhibition at 1 µM (human SSTR5) [%] | SMILES | average of delta GHb (%) [1] [%]
134 | CC(C)Oc1nc(-c2ccc(F)cc2)c(C2CC2)cc1CN1CCC(n2ccc(C(=O)O)cc2=O)CC1 [Example 2, 1-(1-((5-cyclopropyl-6-(4-fluorophenyl)-2-isopropoxypyridin-3-yl)methyl)piperidin-4-yl)-2-oxo-1,2-dihydropyridine-4-carboxylic acid] | 
120 | CC(C)Oc1cc(C2CC2)c(C2CC2)cc1CN1CCC(n2ccc(C(=O)O)cc2=O)CC1 [Example 4, 1-(1-(4,5-dicyclopropyl-2-isopropoxybenzyl)piperidin-4-yl)-2-oxo-1,2-dihydropyridine-4-carboxylic acid] | 
133 | CCc1c(C(=O)O)ccn(C2CCN(Cc3cc(C4CC4)c(-c4ccc(F)cc4)c(F)c3OC(C)C)CC2)c1=O [Example 43, 1-(1-((6-cyclopropyl-2,4′-difluoro-3-isopropoxybiphenyl-4-yl)methyl)piperidin-4-yl)-3-ethyl-2-oxo-1,2-dihydropyridine-4-carboxylic acid] | 
89 | CCc1c(C(=O)O)ccn(C2CCN(Cc3cc(C4CC4)c(-c4ccc(F)cc4)cc3OC(C)C)CC2)c1=O [Example 51, 1-(1-((2-cyclopropyl-4′-fluoro-5-isopropoxybiphenyl-4-yl)methyl)piperidin-4-yl)-3-ethyl-2-oxo-1,2-dihydropyridine-4-carboxylic acid] | 
